Laboratory results: patent US20220389515A1, “USE OF BIOMARKERS TO PREDICT CLINICAL SENSITIVITY TO 2-(4-CHLOROPHENYL)-N-((2-(2,6-DIOXOPIPERIDIN-3-YL)-1-OXOISOINDOLIN-5-YL)METHYL)-2,2-DIFLUOROACETAMIDE” (priority 2019, published 2022)

System: U937, OCI-AML2 and MOLM-13
Assay: Cell proliferation of parental, CRBN-ablated and GSPT1-G575N expressing AML cells
Assay type: cell-based, human
Description: FIG. 2A illustrates the volcano plot of differentially abundant proteins in response to Compound D treatment relative to the DMSO control. KG1 cells were treated with DMSO or 100 nM Compound D for 4 hours and subjected to TMT proteomics analysis. The X-axis denotes the log 2-fold change of Compound D versus the DMSO control for each protein. P-values were corrected for multiple hypothesis testing using the Benjamini-Hoschberg method to arrive at an adjusted-P-value (adj-P, also known as a false discovery rate). The y-axis denotes the −log 10 (adj-P) values indicating statistical significance such that proteins lying above the dotted red line are statistically significant findings with adjusted P-values<0.05. FIG. 2B illustrates the immunoblot analysis of KG1 and U937 cells treated with DMSO or Compound D for 4 hours. Where indicated, cells were pretreated with Bortezomib or MLN4924 for 30 minutes. […]
For cell proliferation assays, human cancer cell lines cultured in the growth medium recommended by the vendor (as described above) were seeded into black 384-well plates containing DMSO or test compounds. […] After 72 hours, cell proliferation was assessed using the CTG assay according to the manufacturer's instructions. […]

SMILES: O=C1CCC(N2Cc3cc(CNC(=O)C(F)(F)c4ccc(Cl)cc4)ccc3C2=O)C(=O)N1 (centres unmarked) [Compound D, 2-(4-chlorophenyl)-N-((2-(2,6-dioxopiperidin-3-yl)-1-oxoisoindolin-5-yl)methyl)-2,2-difluoroacetamide]
- anti-proliferative effect after ablation of CRBN (CRBN knockout U937, OCI-AML2, MOLM-13): completely abolished the anti-proliferative effect
- antiproliferative response in cells overexpressing GSPT1-G575N (U937, OCI-AML2, MOLM-13, GSPT1 stabilization): completely inhibited the response to Compound D
